Where “and” joins values, the source holds several entries; their conditions need not be identical. Equal entries are not always repeated. Entries after “also recorded” stand apart in the source; their conditions may differ.
Columns and labels:
[1] = cited from earlier work
[2] = Human pilot pharmacokinetic study of IV and PO FdCyd and THU; conditions: humans; after PO dosing; FC detected in 4 out of the 7 patients
[3] = Plasma pharmacokinetics of FdCyd, metabolites and THU in cynomolgus monkeys; conditions: for Detection of metabolites in plasma: four animals; for Concentrations, fold lower than those of parent FdCyd: PO FdCyd 1 h after 500 mg/kg PO THU; for Detection in plasma: PO FdCyd at 1 and 10 mg/kg 1 h after PO THU; for AUC(0-inf): AUC0-inf; for AUC(0-t): AUC0-t
cynomolgus monkeys = conditions: THU (500 mg/kg) and FdCyd (0.1, 1.0 or 10.0 mg/kg) PO QDx3 every week, 3 or 4 repeat 1 week cycles
[4] = monkeys, FdCyd 0.1 mg/kg PO 1 h after 500 mg/kg THU PO
[5] = both, cynomolgus monkey, plasma, iv, analyte FdCyd, FdCyd 8 mg/kg 3 h IV infusion with THU 30 mg/kg IV, N=2, mean (±SD)
[6] = both, cynomolgus monkey, plasma, po, 10 mg/kg, analyte FdCyd, FdCyd 10 mg/kg PO 1 h after THU 150 mg/kg PO, N=4, mean (±SD)
[7] = both, cynomolgus monkey, plasma, po, 10 mg/kg, analyte FdCyd, FdCyd 10 mg/kg PO 1 h after THU 500 mg/kg PO, N=4, mean (±SD)

Which Chemical stability [1] does the source give for `Nc1ncn([C@@H]2O[C@H](CO)[C@@H](O)[C@H]2O)c(=O)n1` [5-aza-cytidine] here?
Its Chemical stability is “unstable”.

With `Nc1nc(=O)[nH]cc1F` [FC, 5-fluorocytosine] as the compound, how does the “Overall maximum plasma concentration of FC observed” value [2] read?
Its value is 36.9 ng/mL.

What about the FC in plasma ([3]; monkeys, 10 mg/kg FdCyd PO after 150 mg/kg THU PO) of the same compound?
The FC in plasma was “no FC was detected”.

And the FC in plasma ([3]; monkeys, 10 mg/kg FdCyd PO after 150 mg/kg THU PO, listed as 5-FC)?
Its FC in plasma is “not after 150 mg/kg THU”.

And the FC in plasma ([3]; monkeys, 10 mg/kg FdCyd PO with 500 mg/kg THU PO)?
The FC in plasma was “Low levels of FC were also detected”.

What about the FC in plasma ([3]; monkeys, 10 mg/kg FdCyd PO with 500 mg/kg THU PO, listed as 5-FC) of the same compound?
Its FC in plasma is “observed”.

What about the “Detection of metabolites in plasma” value [3, 4] of the same compound?
The value was “No FU or FC was detected”.

What does the source list for `O=c1[nH]cc(F)c(=O)[nH]1` [FU, 5-fluorouracil]?
Detection of metabolites in plasma [3, 4]: No FU or FC was detected; Concentrations, fold lower than those of parent FdCyd ([3]; monkeys): approximately 10 fold; Detection in plasma ([3]; monkeys): detectable plasma concentrations

For `O=c1[nH]c(=O)n([C@@H]2O[C@H](CO)[C@@H](O)[C@H]2O)cc1F` [FUrd, 5-fluorouridine], which “FUrd peaks in plasma samples” value ([3]; any of the samples, detectable down to approximately 30 ng/mL) is on record?
Its value is “no FUrd peaks were detected”.

For `Nc1nc(=O)n([C@H]2C[C@H](O)[C@@H](CO)O2)cc1F` [FdCyd, 5-fluoro-2’-deoxycytidine], which “Mortality and dose-limiting toxicity” value (cynomolgus monkeys) is on record?
The value was “did not result in any mortality or any signs of dose-limiting toxicity”.

And the AUC(0-inf) [3, 5]?
Its AUC(0-inf) is 17800 ng·h/mL.

And the AUC(0-t) [3, 5]?
The AUC(0-t) was 17800 ng·h/mL.

And the Cmax [3, 5]?
Its Cmax is 5690 ng/mL.

And the Tmax ([3]; both, cynomolgus monkey, plasma, iv, Tmax, analyte FdCyd, FdCyd 8 mg/kg 3 h IV infusion with THU 30 mg/kg IV, N=2, mean (±SD))?
Its Tmax is 1.75 h.

And the half-life ([3]; both, cynomolgus monkey, plasma, iv, T½, analyte FdCyd, FdCyd 8 mg/kg 3 h IV infusion with THU 30 mg/kg IV, N=2, mean (±SD))?
Its half-life is 0.87 h.

What about the Tmax ([3]; both, cynomolgus monkey, plasma, po, 0.1 mg/kg, Tmax for FdCyd (mean), monkeys, FdCyd 0.1 mg/kg PO 1 h after 500 mg/kg THU PO) of the same compound?
The Tmax was 0.25 h.

And the Tmax ([3]; both, cynomolgus monkey, plasma, po, 1 mg/kg, Tmax for FdCyd (mean), monkeys, FdCyd 1 mg/kg PO 1 h after 500 mg/kg THU PO)?
Its Tmax is 0.5 h.

What about the AUC(0-inf) [3, 6] of the same compound?
The AUC(0-inf) was 1930 ng·h/mL.

What about the AUC(0-inf) [3, 7] of the same compound?
The AUC(0-inf) was 5400 ng·h/mL.

And the AUC(0-t) [3, 6]?
Its AUC(0-t) is 1870 ng·h/mL.

And the AUC(0-t) [3, 7]?
Its AUC(0-t) is 5280 ng·h/mL.

And the CL/F [3, 6]?
The CL/F was 126 mL/min/kg.

And the CL/F [3, 7]?
Its CL/F is 53 mL/min/kg.

And the Cmax [3, 6]?
The Cmax was 1180 ng/mL.

What about the Cmax [3, 7] of the same compound?
The Cmax was 2030 ng/mL.

What about the bioavailability ([3]; both, cynomolgus monkey, plasma, po, 10 mg/kg, F (PO bioavailability), analyte FdCyd, FdCyd 10 mg/kg PO 1 h after THU 150 mg/kg PO, relative to 4, 8, and 16 mg/kg FdCyd IV with 30 mg/kg THU) of the same compound?
The bioavailability was 8.9%.

What about the bioavailability ([3]; both, cynomolgus monkey, plasma, po, 10 mg/kg, F (PO bioavailability), analyte FdCyd, FdCyd 10 mg/kg PO 1 h after THU 500 mg/kg PO, relative to 4, 8, and 16 mg/kg FdCyd IV with 30 mg/kg THU) of the same compound?
Its bioavailability is 25%.

What about the Tmax ([3]; both, cynomolgus monkey, plasma, po, 10 mg/kg, Tmax for FdCyd (mean), monkeys, FdCyd 10 mg/kg PO 1 h after 500 mg/kg THU PO) of the same compound?
Its Tmax is 1.38 h.

What about the Tmax ([3]; both, cynomolgus monkey, plasma, po, 10 mg/kg, Tmax, analyte FdCyd, FdCyd 10 mg/kg PO 1 h after THU 150 mg/kg PO, N=4, mean (±SD)) of the same compound?
Its Tmax is 1.25 h.

What about the Tmax ([3]; both, cynomolgus monkey, plasma, po, 10 mg/kg, Tmax, analyte FdCyd, FdCyd 10 mg/kg PO 1 h after THU 500 mg/kg PO, N=4, mean (±SD)) of the same compound?
The Tmax was 1.38 h.

What about the half-life ([3]; both, cynomolgus monkey, plasma, po, 10 mg/kg, T½, analyte FdCyd, FdCyd 10 mg/kg PO 1 h after THU 150 mg/kg PO, N=4, mean (±SD)) of the same compound?
The half-life was 1.23 h.

And the half-life ([3]; both, cynomolgus monkey, plasma, po, 10 mg/kg, T½, analyte FdCyd, FdCyd 10 mg/kg PO 1 h after THU 500 mg/kg PO, N=4, mean (±SD))?
The half-life was 0.63 h.

And the half-life ([3]; both, cynomolgus monkey, plasma, po, Plasma terminal half-life of FdCyd, monkeys, range over groups receiving 0.1, 1.0, and 10 mg/kg PO FdCyd 1 h after 500 mg/kg PO THU)?
The half-life was 0.4 to 2.7 h.

What about the clearance ([3]; both, cynomolgus, cynomolgus monkey, plasma, iv) of the same compound?
The clearance was ~15 mL/min/kg.

What about the half-life ([3]; both, cynomolgus, cynomolgus monkey, plasma, iv, FdCyd half-life, monkeys, after IV FdCyd and THU administration, range) of the same compound?
The half-life was 0.367 to 0.933 h.

And the bioavailability ([3]; both, cynomolgus, cynomolgus monkey, plasma, po, FdCyd PO bioavailability after THU, monkeys, range, increased with increasing THU dose)?
The bioavailability was 9 to 25%.

And the “Plasma concentrations of FdCyd or downstream metabolites” value ([3]; monkeys, 10 mg/kg PO FdCyd without THU, 10 mg/kg)?
The value was “not detectable; also recorded: undetectable”.

What about the “Detectable plasma concentrations of FdCyd (range per animal)” value ([3]; monkeys, FdCyd 0.1 mg/kg PO 1 h after 500 mg/kg THU PO, two of four animals) of the same compound?
Its value is 22.6 to 117.2 ng/mL and 34.1 to 152.2 ng/mL.

What does the source list for `O=c1[nH]c(=O)n([C@H]2C[C@H](O)[C@@H](CO)O2)cc1F` [FdUrd, 5-fluoro-2’-deoxyuridine]?
Detection of metabolites in plasma [3, 4]: three had detectable plasma concentrations of FdUrd out to 60 min; Concentrations, fold lower than those of parent FdCyd ([3]; monkeys): approximately 10 fold; Detection in plasma ([3]; monkeys): detectable plasma concentrations

Which Chemical stability [1] does the source give for `Nc1ncn([C@H]2C[C@H](O)[C@@H](CO)O2)c(=O)n1` [decitabine] here?
The Chemical stability was “unstable”.
